# Laboratory results taken from patent US20240148819A1, “COMPOUNDS FOR USE IN THE TREATMENT OF SINUSITIS, PNEUMONIA OR OTITIS” (PHARMA HOLDINGS AS, priority 2021, published 2024).
# Read-outs that look alike come from different tables or passages of the source.
# What was measured:
# HeLa cells [1] = test: Parallel test without virus for residual cytotoxicity (Example 7); type: cell-based, human; conditions: 3% LTX-109 (w/v) or 0.25% SDS, after dilution (50 μl in 5 ml), no virus
# Experimental: (§7) A parallel test where the same procedure was carried out in the absence of virus was included to determine any residual cytotoxic effect of the formulation on the assay cells.
# HeLaM cells = conditions: 1% LTX-7 (w/v) or 0.25% SDS in PBS, contact time 1 h, after filtration, no virus
# Experimental: (§8) A parallel test where the same procedure was carried out in the absence of virus was included to determine any residual cytotoxic effect of LTX-7 on the assay cells.
# Rhinovirus 60, 2268-CV37 [2] = test: TCID50 assay after 1 h incubation of virus with 1% LTX-109 (Example 6); type: cell-based
# [3] = test system: Rhinovirus (HRV-A60), Strain: 2268-CV37; test: TCID50 assay after 1 h incubation of virus with LTX-7 (Example 10); type: cell-based; conditions: 1% LTX-7 or 0.25% SDS; for % Reduction: Rhinovirus infectivity; for % Reduction / Log decrease: compared to PBS control; for Log decrease: Rhinovirus
# HeLa cells [4] = conditions: 1% LTX-109 (w/v) or 0.25% SDS, after filtration, no virus, dilution showing cytotoxicity
# Experimental: as §7
# Rhinovirus 60, 2268-CV37 [5] = test: TCID50 assay after 1 h incubation of virus with 3% LTX-109, stopped by dilution (Example 7); type: cell-based
# Candida parapsilosis = Candida parapsilosis - ATCC90018 - reference strain
# Experimental: (§1) Bacterial and fungal isolates used in this study were from various sources worldwide stored at GR Micro Ltd. and maintained, with minimal sub-culture, deep frozen at −70° C. as a dense suspension in a high protein matrix of undiluted horse serum.
# (§2) Minimum inhibitory concentration (MIC) of LTX-109 was determined using the following microbroth dilution methods for antimicrobial susceptibility testing published by the Clinical and Laboratory Standards Institute (CLSI, formerly NCCLS): • M7-A6 Vol. 23 No. 2 Jan. 2003 Methods for Dilution Antimicrobial Susceptibility Tests for Bacteria that Grow Aerobically; Approved Standard-Sixth Edition. National Committee for Clinical Laboratory Standards. • M100-S15 Vol. 25 No 1. January 2005 Performance Standards for Antimicrobial Susceptibility Testing; Fifteenth Informational Supplement. Clinical and Laboratory Standards Institute • M11-A6 Vol. 24 No. 2 Methods for Antimicrobial Susceptibility Testing of Anaerobic Bacteria; Approved Standard-Sixth Edition. National Committee for Clinical Laboratory Standards. • M27-A2 Vol. 22 No. 15 Reference Method for Broth Dilution Antifungal Susceptibility Testing of Yeasts; Approved Standard-Second Edition. National Committee for Clinical Laboratory Standards. • M38-A Vol. 22 No. 16 Reference Method for Broth Dilution Antifungal Susceptibility Testing of Filamentous Fungi; Approved Standard. National Committee for Clinical Laboratory Standards.
# (§3) MIC estimations were performed using wet plates, containing the LTX-109, prepared at GR Micro Ltd.
# (§4) Yeast and filamentous fungal MIC were performed in MOPS buffered RPMI 1640 medium (MOPS buffer obtained from Sigma Aldrich Ltd., RPMI 1640 obtained from Invitrogen Ltd, Paisley, Scotland). The yeast inocula were in the range 7.5×10^2-4×10^3 CFU/mL and the filamentous fungi approximately 8×10^3-1×10^5 CFU/mL.
# (§5) Following normal practice all the plates containing Mueller-Hinton broth were prepared in advance, frozen at −70° C. on the day of preparation and defrosted on the day of use. Fungal, Haemophilus and anaerobic MIC determinations were all performed in plates prepared on the same day.
# Aspergillus niger = Aspergillus niger - G. R. Micro collection
# Experimental: as §1, §2, §3, §4, §5
# Candida tropicalis = Candida tropicalis - ATCC750 - reference strain
# Experimental: as §1, §2, §3, §4, §5
# Candida krusei = Candida krusei - ATCC6258 - reference strain
# Experimental: as §1, §2, §3, §4, §5
# Candida albicans = test system: Candida albicans
# Experimental: as §1, §2, §3, §4, §5
# Mycoplasma pneumoniae = conditions: both of the library strains of Mycoplasma pneumoniae
# Experimental: Two library strains of Mycoplasma pneumoniae were used. These strains were stored at GR Micro Ltd. and maintained, with minimal sub-culture, deep frozen at −70° C. as a dense suspension in a high protein matrix of undiluted horse serum.
# MIC determination was carried out using a broth microdilution method in Mycoplasma Broth Base (Oxoid Ltd, Hampshire, UK), prepared according to the manufacturer's instructions.
# [6] = test system: Influenza A strain A/WSN/33 (H1N1); type: cell-based, Influenza A virus
# Streptococcus pneumoniae = test system: Streptococcus pneumoniae
# Experimental: as §1, §2, §3
# (§6) Cation-adjusted Mueller-Hinton broth (Oxoid Ltd., Basingstoke, UK and Trek Diagnostic Systems Ltd., East Grinstead, UK) (supplemented with 5% laked horse blood for Streptococcus spp.) was used for aerobic bacteria, with an initial inoculum of approximately 10^5 colony-forming units (CFU)/mL.
# as §5
# Moraxella catarrhalis = test system: Moraxella catarrhalis
# Experimental: as §1, §2, §3, §6, §5
# Streptococcus pyogenes = Streptococcus pyogenes - macrolide (MLS) resistant clinical isolate
# Experimental: as §1, §2, §3, §6, §5
# MDCK-II cells = conditions: 1% LTX-7 (w/v) or 0.2% Triton X-100 in PBS, contact time 1 h, after filtration, no virus
# Experimental: as §8
# [7] = test system: SARS-CoV-2 isolate England/02/2020; type: cell-based
# Vero cells = test: Parallel test without virus for residual cytotoxicity (Example 8); conditions: 1% LTX-12 (w/v) or 0.2% Triton in PBS, contact time 1 h, after filtration, no virus
structure (smiles),measurement,setting,value
"CCCCCCCCCCCCOS(=O)(=O)[O-].[Na+] [SDS, Sodium dodecyl sulphate]",Cytotoxicity,HeLa cells [1],Neat
same,Cytotoxicity,HeLaM cells,Neat
same,TCID50/ml ± SEM,"Rhinovirus 60, 2268-CV37 [2]; Rhinovirus titre recovered after 1 hour with 1% LTX-109 (w/v) or 0.25% SDS, filtration, HeLa cells, 7 days",1.00E+02 TCID50/ml
same,Log decrease,"Rhinovirus 60, 2268-CV37 [2]; Rhinovirus, 1% LTX-109 or 0.25% SDS, 1 hour, compared to PBS control",3.6 log
same,Percentage,"Rhinovirus 60, 2268-CV37 [2]; decrease in Rhinovirus infectivity, 1% LTX-109 or 0.25% SDS, 1 hour, compared to PBS control",99.98%
same,Log,"Rhinovirus 60, 2268-CV37 [2]; log of Rhinovirus titre after 1 hour with 1% LTX-109 or 0.25% SDS",2.0
same,% Reduction,[3],99.983%
same,Log decrease,[3],3.67 log
same,Rounded %,[3]; rounded % reduction of Rhinovirus infectivity,99.9%
same,Cytotoxicity,HeLa cells [4],Neat
same,TCID50/ml ± SEM,"Rhinovirus 60, 2268-CV37 [5]; Rhinovirus titre recovered after 1 hour with 3% LTX-109 (w/v) or 0.25% SDS, dilution, no filter, HeLa cells, 7 days",1.58E+01 TCID50/ml
same,Log decrease,"Rhinovirus 60, 2268-CV37 [5]; Rhinovirus, 3% LTX-109 or 0.25% SDS, 1 hour, compared to PBS control",3.0 log
same,Percentage,"Rhinovirus 60, 2268-CV37 [5]; decrease in Rhinovirus infectivity, 3% LTX-109 or 0.25% SDS, 1 hour, compared to PBS control",99.91%
same,Log,"Rhinovirus 60, 2268-CV37 [5]; log of Rhinovirus titre after 1 hour with 3% LTX-109 or 0.25% SDS",1.2
"N=C(N)NCCCC(N)C(=O)NC(Cc1ccc(-c2ccc3ccccc3c2)cc1)C(=O)NC(CCCNC(=N)N)C(=O)NCCc1ccccc1 (stereo not drawn) [LTX-7, Arg-Phe(4-(2-Naphthyl))-Arg-NH—CH2—CH2-Ph]",MIC,Candida parapsilosis,4 µg/mL
same,MIC,Aspergillus niger,4 µg/mL
same,MIC,Candida tropicalis,2 µg/mL
same,MIC,Candida krusei,4 µg/mL
same,MIC,Candida albicans; Candida albicans - ATCC24433 - reference strain,2 µg/mL
same,MIC,Candida albicans; Candida albicans - ATCC90028 - reference strain,2 µg/mL
same,Cytotoxicity,HeLaM cells,Neat
same,MIC,Mycoplasma pneumoniae,32 µg/mL
same,% Reduction,[6],99.9988%
same,% Reduction,[3],95.791%
same,Log decrease,[3],1.33 log
same,MIC,Streptococcus pneumoniae; Streptococcus pneumoniae - penicillin intermediate clinical isolate,32 µg/mL
same,MIC,Streptococcus pneumoniae; Streptococcus pneumoniae - penicillin resistant clinical isolate,32 µg/mL
same,MIC,Moraxella catarrhalis; Moraxella catarrhalis - reduced fluoroquinolone susceptibility clinical isolate,8 µg/mL
same,MIC,Moraxella catarrhalis; Moraxella catarrhalis - β-lactamase positive clinical isolate,4 µg/mL
same,MIC,Streptococcus pyogenes,32 µg/mL
same,Cytotoxicity,MDCK-II cells,neat
"CC(C)(C)c1cc(C(C)(C)C)c2[nH]c(C(C)(C)C)c(CC(NC(=O)C(N)CCCCN)C(=O)NC(CCCCN)C(=O)NCCc3ccccc3)c2c1 (stereo not drawn) [LTX-12, Lys-Tbt-Lys-NH—CH2—CH2-Ph]",% Reduction,[7],99.977%
same,Cytotoxicity,Vero cells,No cytotoxicity
